This note sets out measurements from ChEMBL document CHEMBL1201862, “PubChem BioAssay data set” (2004).

By GI50 is commonly meant the concentration at which growth is held to half of that of the control.

Test systems include T47D; HCT-15; MDA-MB-231; A498; OVCAR-8; SNB-19; OVCAR-4; SNB-75; Hs-578T; HCT-116; MDA-MB-435; OVCAR-5; HOP-92; SK-MEL-28; PC-3; HCC 2998; NCI-H460; CCRF-CEM; MOLT-4.
Holding throughout (assay): DTP human tumour cell line panel, 48 h

Each structure is given as a SMILES string.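 These data come from cells grown in 96-well plates and exposed to compound for 48 hours at five concentrations. The concentration for 50% growth inhibition is given as GI50.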 Active and inactive are the calls of the source. No stated cut-off is given here; in the data, active = GI50 up to about 1.1 µM and inactive = higher. A value given as a limit tells only on which side of the number the result lay.

`CC(C)(CC1(C)NC(=O)NC1=O)OCc1ccccc1` (centres undefined): the GI50 was > 100 µM (inactive) in the assay on T47D; above 100 µM in the assay with HCT-15; > 100 µM (inactive) in the assay on MDA-MB-231; > 100 µM (inactive) in the assay on A498; > 100 µM (inactive) in the assay on OVCAR-8; > 100 µM (inactive) in the assay with SNB-19. The GI50 with OVCAR-4, in the assay on SNB-75, in the assay with Hs-578T, with HCT-116, in the assay with MDA-MB-435 and in the assay with OVCAR-5 was > 100 µM (inactive) throughout. Also, the GI50 in the assay with HOP-92, in the assay with SK-MEL-28, in the assay with PC-3, with HCC 2998 and in the assay with NCI-H460 was > 100 µM (inactive) in each case.
Turning to `Cn1c(=O)c2c(no[n+]2[O-])n(C)c1=O`, the GI50 is > 100 µM (inactive) in the assay on CCRF-CEM; > 100 µM (inactive) with T47D; above 100 µM with HCT-15; 21.7 µM (inactive) with MDA-MB-231; 18.2 µM (inactive) with A498; 19.1 µM (inactive) with OVCAR-8. Besides, the GI50 in the assay with SNB-19 is 22.3 µM (inactive); in the assay with OVCAR-4, 59.8 µM (inactive); in the assay on SNB-75, 49.7 µM (inactive); with Hs-578T, 22.6 µM (inactive); in the assay on HCT-116, > 100 µM (inactive); in the assay with MDA-MB-435, 20 µM (inactive). The GI50 in the assay on OVCAR-5 was > 100 µM (inactive); in the assay on HOP-92 it was 19.1 µM (inactive); with PC-3, > 100 µM (inactive); in the assay on MOLT-4 it was > 100 µM (inactive); with HCC 2998 it was > 100 µM (inactive); in the assay with NCI-H460, > 100 µM (inactive).
For the compound `N#Cc1c(C#N)c(SSc2c(C#N)c(C#N)c(N)n2-c2ccc(F)cc2)n(-c2ccc(F)cc2)c1N`, the GI50 was 2.02 µM (inactive) in the assay on CCRF-CEM; 2.7 µM (inactive) with T47D; 2.03 µM in the assay with HCT-15; 19.6 µM (inactive) in the assay on MDA-MB-231; 8.11 µM (inactive) in the assay on A498; 6.55 µM (inactive) in the assay with OVCAR-8. The GI50 in the assay with SNB-19 was 21.6 µM (inactive); in the assay on OVCAR-4 it was 2.77 µM (inactive); with SNB-75, 5.77 µM (inactive); in the assay on Hs-578T, 25.8 µM (inactive); in the assay on HCT-116, 1.9 µM (inactive); in the assay with MDA-MB-435, 8.11 µM (inactive). Moreover, the GI50 with OVCAR-5 is 17.1 µM (inactive); in the assay on HOP-92 it was 2.96 µM (inactive); in the assay on SK-MEL-28, 3.72 µM (inactive); in the assay with PC-3 it was 17.9 µM (inactive); with MOLT-4, 0.619 µM (active); in the assay with HCC 2998, 21.8 µM (inactive). For the same compound, in the assay on NCI-H460, the GI50 was 20.2 µM (inactive).
Take `CCOC(=O)c1c(SCc2ccccc2)nc2c3ccccc3ccn12`: the GI50 with CCRF-CEM is > 100 µM (inactive); with T47D, > 100 µM (inactive); in the assay with HCT-15, above 100 µM; in the assay on MDA-MB-231, > 100 µM (inactive); with A498, 54.5 µM (inactive); in the assay with OVCAR-8, 83.6 µM (inactive). Moreover, the GI50 is 56 µM (inactive) with OVCAR-4; 25.9 µM (inactive) in the assay on SNB-75; 21.4 µM (inactive) in the assay with Hs-578T; > 100 µM (inactive) with HCT-116; > 100 µM (inactive) with MDA-MB-435; > 100 µM (inactive) with OVCAR-5. The GI50 with HOP-92 is 1.72 µM (inactive); in the assay on SK-MEL-28, > 100 µM (inactive); in the assay with PC-3 it was > 100 µM (inactive); in the assay with MOLT-4 it was > 100 µM (inactive); in the assay on HCC 2998 it was > 100 µM (inactive); in the assay with NCI-H460 it was 55.6 µM (inactive).
With `CC1(C)CC(C2=NCCO2)CC(C)(C)N1`, the GI50 in the assay with CCRF-CEM was > 100 µM (inactive); with T47D, > 100 µM (inactive); with HCT-15 it was above 100 µM; with MDA-MB-231, > 100 µM (inactive); in the assay on A498, > 100 µM (inactive); with OVCAR-8 it was > 100 µM (inactive). Besides, the GI50 with SNB-19, with OVCAR-4, in the assay on SNB-75, with Hs-578T, with HCT-116 and with MDA-MB-435 was > 100 µM (inactive) each time. Besides, the GI50 in the assay on OVCAR-5, in the assay on HOP-92, in the assay on SK-MEL-28, with PC-3 and in the assay with MOLT-4 was > 100 µM (inactive) throughout.
`ClC1=NN=C(c2c[nH]c3ccccc23)CC1NCc1ccccc1` (centres undefined): the GI50 was > 100 µM (inactive) with CCRF-CEM; > 100 µM (inactive) in the assay on T47D; above 100 µM with HCT-15; > 100 µM (inactive) in the assay with MDA-MB-231; > 100 µM (inactive) in the assay with A498; > 100 µM (inactive) in the assay with OVCAR-8. For the same compound, the GI50 in the assay with SNB-19, in the assay with SNB-75, in the assay with Hs-578T, in the assay with HCT-116, in the assay on MDA-MB-435 and in the assay on OVCAR-5 was > 100 µM (inactive) in each case. Further, the GI50 in the assay on HOP-92, with SK-MEL-28, in the assay with PC-3, in the assay on MOLT-4 and in the assay on NCI-H460 was > 100 µM (inactive) each time.
Take `COc1ccc(/C=N/NC(=O)c2ccc(O)c(CN(C)C)c2)cc1`: the GI50 in the assay on CCRF-CEM was > 100 µM (inactive); in the assay on T47D, > 100 µM (inactive); in the assay on HCT-15, above 100 µM; in the assay on MDA-MB-231, > 100 µM (inactive); in the assay with A498, 18.2 µM (inactive); in the assay with OVCAR-8, > 100 µM (inactive). Also, the GI50 in the assay with SNB-19 is > 100 µM (inactive); with OVCAR-4 it was > 100 µM (inactive); in the assay on Hs-578T it was > 100 µM (inactive); in the assay with HCT-116, > 100 µM (inactive); in the assay with MDA-MB-435, 47.3 µM (inactive); in the assay on OVCAR-5, > 100 µM (inactive). Also, the GI50 was 57 µM (inactive) in the assay with HOP-92; > 100 µM (inactive) in the assay on SK-MEL-28; > 100 µM (inactive) with PC-3; > 100 µM (inactive) in the assay on MOLT-4; > 100 µM (inactive) in the assay on HCC 2998; > 100 µM (inactive) in the assay with NCI-H460.
Consider `O=c1[nH]cnc2c1ncn2[C@H]1CO[C@@H](CO)[C@@H]1O`, for which the GI50 in the assay on CCRF-CEM is > 100 µM (inactive); in the assay on T47D it was > 100 µM (inactive); in the assay on HCT-15, above 100 µM; with MDA-MB-231 it was > 100 µM (inactive); in the assay with A498 it was > 100 µM (inactive); with OVCAR-4, > 100 µM (inactive). The GI50 in the assay with SNB-75, in the assay with Hs-578T, in the assay on HCT-116, with MDA-MB-435, in the assay with OVCAR-5 and in the assay on HOP-92 was > 100 µM (inactive) throughout. Moreover, the GI50 in the assay with SK-MEL-28, with PC-3, in the assay on MOLT-4, in the assay on HCC 2998 and in the assay on NCI-H460 was > 100 µM (inactive) throughout.
`Cc1cc(C)c2c(n1)S(=O)(=O)N(CCCN1CCN(c3cccc(C(F)(F)F)c3)CC1)C(C(=O)c1ccc(Cl)cc1)=C2O`: the GI50 with CCRF-CEM is 8.15 µM (inactive); with T47D, 3.98 µM (inactive); in the assay on HCT-15, 1.85 µM; in the assay on MDA-MB-231, 4.4 µM (inactive); in the assay on A498 it was 4.52 µM (inactive); with OVCAR-8 it was 3.83 µM (inactive). Moreover, the GI50 with SNB-19 was 2.2 µM (inactive); in the assay with OVCAR-4, 3.06 µM (inactive); with SNB-75, 2.81 µM (inactive); with Hs-578T, 5.55 µM (inactive); in the assay with HCT-116 it was 2.81 µM (inactive); in the assay on MDA-MB-435, 3.18 µM (inactive). Moreover, the GI50 with OVCAR-5 is 4.71 µM (inactive); with HOP-92, 2.5 µM (inactive); in the assay on SK-MEL-28, 5.21 µM (inactive); in the assay on PC-3, 2.88 µM (inactive); with MOLT-4 it was 0.418 µM (active); in the assay with NCI-H460 it was 1.79 µM (inactive).
`Cc1ccc(S(=O)(=O)n2cc(-c3cc(C(F)(F)F)ccn3)c3cc(Br)ccc32)cc1`: the GI50 was > 100 µM (inactive) in the assay with CCRF-CEM; 1.55 µM (inactive) in the assay on T47D; 21.9 µM in the assay on HCT-15; 17.3 µM (inactive) with MDA-MB-231; 18.2 µM (inactive) with A498; 16 µM (inactive) with SNB-19. Besides, the GI50 in the assay with OVCAR-4 is 12.3 µM (inactive); in the assay with Hs-578T, 15 µM (inactive); with HCT-116, 14.5 µM (inactive); with MDA-MB-435, 46.2 µM (inactive); in the assay with OVCAR-5, 50 µM (inactive); with HOP-92 it was 13.7 µM (inactive). The GI50 is 20.7 µM (inactive) in the assay with SK-MEL-28; 18.2 µM (inactive) in the assay with PC-3; > 100 µM (inactive) in the assay on MOLT-4; 16.4 µM (inactive) in the assay with HCC 2998; 36.5 µM (inactive) in the assay on NCI-H460.
Turning to `O=S(=O)(N/C(=N\O)Nc1ccc(Cl)cc1)c1cc(S(=O)(=O)c2ccccc2)cs1`, the GI50 in the assay with CCRF-CEM was 11.2 µM (inactive); in the assay on T47D it was 11.6 µM (inactive); in the assay on HCT-15 it was 18.8 µM; with MDA-MB-231, 20.3 µM (inactive); with A498, 13.8 µM (inactive); in the assay with OVCAR-8 it was 15.8 µM (inactive). For the same compound, the GI50 with SNB-19 is 17.9 µM (inactive); with OVCAR-4 it was 12.9 µM (inactive); in the assay with Hs-578T, 13.6 µM (inactive); with HCT-116 it was 13.6 µM (inactive); in the assay on MDA-MB-435, 13.8 µM (inactive); with OVCAR-5, 16.5 µM (inactive). In addition, the GI50 with HOP-92 is 9.62 µM (inactive); with SK-MEL-28, 16 µM (inactive); in the assay on PC-3, 15 µM (inactive); with MOLT-4, 6.87 µM (inactive); with HCC 2998, 13.4 µM (inactive); with NCI-H460, 17.7 µM (inactive).
